# Measured values from patent US20070043070A1, “Weak base salts” (priority 2000, published 2007).
# “Also recorded” adds a separate entry of the source. Where a name gives a salt, the structure may show the parent alone. Read-outs that look alike come from different tables or passages of the source. Marks after values point to notes of the source that are not given here.
# Assays:
# [1] = cited from earlier work; for pKa: weak base compounds
# [2] = Moisture sorption studies (desiccators at 43% and 81% RH, 25° C., 8 days; PXRD of the solid afterwards); format: physicochemical; details: for Hygroscopicity: gain of moisture: hygrostat for 8 days at 43% RH; for PXRD pattern / solid state form after storage / moisture adsorbed: 8 days; for hygroscopicity in words: 43 and 81% RH; for moisture adsorbed: 25° C.
# Experimental: The PXRD patterns of different salts of carbendazim were determined at ambient temperature and atmosphere using a Philips PM 990/100 diffractometer (Philips, The Netherlands). The x-ray generator (PW3373/00 Cu LFF DK119706) has a copper radiation source which generates a voltage of 50 kV, and a current of 40 mA. Counts were measured using a X'Celerator detector which is based on real time multiple strip (RTMS) technology. Samples were packed into zero background silicon sample holders, and precautions were used to avoid introducing preferred orientation of the crystallites. The samples were subjected to a spinning movement having a rotation time of 4 s. The samples were scanned with the diffraction angle, 2θ, increasing from 3° to 63°, with a step size of 0.0167° and a counting time of 15.24 s. The XRD pattern traces of samples (salts subjected to moisture sorption or stability) were compared with regard to peak position and relative intensity, peak shifting, and the presence or lack of peaks in certain angular regions.
# The moisture sorption of the various salts was determined by exposing weighed amounts (˜2 to 3 mg) of salts in a 4 ml glass vial, which was placed in sealed desiccators containing saturated salt solutions. Saturated salt solutions that give defined relative humidities (as a function of temperature) have been reported in various handbooks containing physical and chemical data.
# The current study was performed at 25° C. with relative humidity values of 43% (saturated solution of potassium carbonate) and 81% (saturated solution of potassium bromide). The samples were stored in desiccators of known relative humidity for 8 days, following which they were re-weighed to calculate the % weight change. The solid phases were then analyzed using PXRD to ascertain the effect of the moisture content.
# [3] = Dissolution studies in Millipore water; format: physicochemical; details: for completeness of dissolution: 60 min; for t40% (time for dissolution of 40% of given amount): water, amount equivalent to 50 mg carbendazim; for dissolution compared, in words: dissolution profiles
# [4] = Dissolution studies in 0.1N hydrochloric acid; format: physicochemical; details: for t60% (time for dissolution of 60% of given amount): pH 1, amount equivalent to 50 mg carbendazim
# Experimental: A weighed amount of salt (so as to have 50 mg of carbendazim) was triturated to provide a uniform particle size and was suspended in the dissolution media. The volume of dissolution media was 250 ml, and the stirring rate was maintained at 250 rpm. One ml aliquot samples filtered through a 0.45 μm Millipore filter were withdrawn at 1, 5, 10, 15, 20, 30, 45, and 60 min, respectively. One ml of the dissolution medium was added to the dissolution vessel after each sampling period to maintain constant volume. The samples were then analyzed by HPLC.
# [5] = Solubility determination of carbendazim salts in water (HPLC); details: for pH: saturated solution in water, Table 13; for PHmax: pH below which solubility plateaus or decreases (solution saturated with respect to salt)
# Experimental: These were mixed by end-to-end rotation. Each sample was then filtered through a 0.45 μm PVDF filter. The filterate was collected in two or more fractions, which were analyzed separately by HPLC to ensure that there were no misleading solubility measurements resulting from adsorption onto the filter. Filter adsorption was assumed to be negligible when the concentration of successive fractions agreed within ±5%. The composition of the residual solid was examined to ensure that at least some of the solid phase that was in equilibrium with the solution was indeed the salt.
# The Ksp determinations were generally calculated directly from the observed carbendazim concentration once it was established that the residual solid phase contained excess salt. Since […] results in the neutralization of an equivalent amount of counterion to its free base form, the same procedure could be used to calculate Ksp in systems where free acid precipitation occurred prior to saturation of the system with the given salt.
# A Beckman Gold HPLC system equipped with a model no. 168 detector at 280 nm was used for all assays. […] The flow rate was controlled at 0.8 ml/min, with carbendazim's retention time at 3.5 min. The injection volume was 20 μL. The evaluation of the assay was conducted by using carbendazim standard solutions at concentrations ranging from 0.1 μg/ml to 100 μg/ml.
# [6] = Dehydration kinetics by TGA (Flynn and Wall method); format: physicochemical; details: TGA heating rates 5-15° C. per minute
# Experimental: TGA traces were recorded with a TA Instruments TGA Q-50 (TA Instruments, New Castle, Del.). The sample weight was approximately 2-4 mg, and heating rates of 2-15° C./min under nitrogen gas flow of 60 ml/min were used.
# The dehydration kinetics of carbendazim hydrochloride dihydrate was studied by subjecting the crystals to TGA heating rates of 5, 7, 10, 12, and 15° C. per minute. The activation energy (Ea) for the dehydration process was calculated from these TGA data according to the method described by Flynn and Wall (J. H. Flynn and L. A. Wall, J. Research Nat. Bur. Standards A, Phys. Chem. A71, 25 (1967); J. Polym. Sci., Pol. Left. 5, 191 (1967); J. Polym. Sci., Pol. Lett. 4, 323 (1966)). This method involves the analysis of weight loss versus temperature at different heating rates (β) to determine the corresponding absolute temperatures at a constant weight loss (C). Graphs of negative logarithm of heating rates (expressed in ° C./s) (−log β) versus 1/T were plotted (FIG. 8) and the activation energy calculated from the slope of the curves. The activation energy for the dehydration of the hydrochloride salt, calculated from the TGA data, was ˜64 kJ/mol.
molecule,measurement,setting,value
Cc1cc(-c2nc3ccccc3s2)ccc1N [AMPB],pKa,[1],4
Cc1cc(NC(=O)NC(=O)c2ccccc2N(C)C)ccc1Oc1ncc(Br)cn1 [BPU NSC 639829],pKa,[1],˜5
O=S(=O)(O)c1ccccc1 [Benzenesulfonic acid],Pka1,"[1]; acids used as counter-ions, Table 1",0.7
CCCCOC(=O)c1ccc(N)cc1 [Butamben],pKa,[1],5.4
CN/C(=N\CCSCc1nc[nH]c1C)NC#N [Cimetadine],pKa,[1],6.8
"COC(=O)Nc1nc2ccccc2[nH]1 [Free Base, carbendazim, reference compound]",Hygroscopicity: gain of moisture,[2],Gain 0.36%
same,dissolved fraction of the initial dose,"[3]; Millipore water, after 60 min",less than 1%
same,completeness of dissolution,[4]; 0.1N HCl,completely soluble
same,t60% (time for dissolution of 60% of given amount),[4],5 min
same,S (aqueous solubility),[5],6 µg/mL
same,Sw,[5],0.006 mg/mL
same,pH of saturated sol.,[5],5.90
CC(=O)O.CCCCCCCCCCCCCCCCCC1=NCCN1 [Glyodin],pKa,[1],˜7
"COC(=O)Nc1nc2ccccc2[nH]1 [Hydrochloride, carbendazim hydrochloride]",PXRD pattern / solid state form after storage,[2]; 43% RH,remained unchanged
same,hygroscopicity in words,[2],minimally hygroscopic
same,PXRD pattern / solid state form after storage,[2]; 81% RH,remained unchanged
same,Hygroscopicity: gain of moisture,[2]; hydrochloride,Gain 0.13%
same,completeness of dissolution,[3]; Millipore water,did not completely dissolve
same,t40% (time for dissolution of 40% of given amount),[3],˜5 min
same,activation energy for the dehydration,[6],~15.3 kcal/mol
same,t60% (time for dissolution of 60% of given amount),[4]; hydrochloride,2 to 3 min
same,S (aqueous solubility),[5],6080 µg/mL
same,Sw,[5],6.080 mg/mL
same,pH of saturated sol.,[5],1.68
same,pH,[5]; 25° C.,1.68
Clc1ccc(COC(Cn2ccnc2)c2ccc(Cl)cc2Cl)c(Cl)c1 (stereo not shown) [Miconazole],pKa,[1],6.7
CCN(CC)C(=O)c1cccnc1 [Nikethamide],pKa,[1],3.5
carbendazim besylate,PXRD pattern / solid state form after storage,[2]; 43% RH,remained unchanged
same,moisture adsorbed,[2]; 81% RH,approximately 4.3%
same,PXRD pattern / solid state form after storage,[2]; 81% RH,remained unchanged
same,Hygroscopicity: gain of moisture,[2],Gain 0.18%
same,completeness of dissolution,[3]; Millipore water,did not completely dissolve
same,t40% (time for dissolution of 40% of given amount),[3],˜5 min
same,t60% (time for dissolution of 60% of given amount),[4],2 to 3 min
same,pH of saturated sol.,[5]; Table 14,1.76
same,PHmax,[5],1.65
same,pH,[5]; 25° C.,1.76
same,S (aqueous solubility),"[5]; water, 25° C.",6992 µg/mL
same,Sw,"[5]; water, Table 14",6.992 mg/mL
carbendazim hemisulfate monohydrate,PXRD pattern / solid state form after storage,[2]; 43% RH,remained unchanged
same,hygroscopicity in words,[2],minimally hygroscopic
same,PXRD pattern / solid state form after storage,[2]; 81% RH,remained unchanged
same,Hygroscopicity: gain of moisture,[2],Gain 0.38%
same,completeness of dissolution,[3]; Millipore water,did not completely dissolve
same,t40% (time for dissolution of 40% of given amount),[3],˜3 min
same,t60% (time for dissolution of 60% of given amount),[4],2 to 3 min
carbendazim mesylate,PXRD pattern / solid state form after storage,[2]; 43% RH,"moisture, same"
same,hygroscopicity in words,[2],highly hygroscopic
same,moisture adsorbed,[2]; 81% RH,10.1%
same,PXRD pattern / solid state form after storage,[2]; 81% RH,showed changes in their PXRD patterns
same,Hygroscopicity: gain of moisture,[2],Gain 2.04%
same,time to complete dissolution,[3]; Millipore water,≤ 30 min
same,"dissolution compared, in words",[3]; Millipore water,dissolved the fastest; also recorded: best dissolution time
same,t40% (time for dissolution of 40% of given amount),[3],<1 min
same,time for dissolving 100% of sample,"[4]; 0.1N HCl, pH 1.1",instanteously soluble
same,t60% (time for dissolution of 60% of given amount),[4],1 min
same,pH of saturated sol.,[5]; Table 14,0.80
same,pH,[5]; 25° C.,0.8
same,S (aqueous solubility),"[5]; water, 25° C.",> 205662 µg/mL
same,S (aqueous solubility),"[5]; water, 25° C., listed as mesylate",> 200000 µg/mL
same,Sw,"[5]; water, Table 14",>205.662* mg/ml
carbendazim phosphate,PXRD pattern / solid state form after storage,[2]; 43% RH,changed.
same,PXRD pattern / solid state form after storage,"[2]; 43% RH, listed as phosphate",loses intensity in 28 0 2E reflection
same,PXRD pattern / solid state form after storage,"[2]; 43% RH, listed as phosphate salt",change form
same,hygroscopicity in words,[2],highly hygroscopic
same,moisture adsorbed,[2]; 81% RH,7.5%
same,PXRD pattern / solid state form after storage,[2]; 81% RH,showed changes in their PXRD patterns
same,Hygroscopicity: gain of moisture,[2],Gain 0.88%
same,completeness of dissolution,[3]; Millipore water,did not completely dissolve
same,"dissolution compared, in words",[3]; Millipore water,better dissolution than the 1:1 physical mixture
same,t40% (time for dissolution of 40% of given amount),[3],˜5 min
same,t60% (time for dissolution of 60% of given amount),[4],2 to 3 min
carbendazim tosylate,PXRD pattern / solid state form after storage,[2]; 43% RH,remained unchanged
same,moisture adsorbed,[2]; 81% RH,approximately 4.3%
same,PXRD pattern / solid state form after storage,[2]; 81% RH,remained unchanged
same,Hygroscopicity: gain of moisture,[2],Gain 0.27%
same,completeness of dissolution,[3]; Millipore water,did not completely dissolve
same,t40% (time for dissolution of 40% of given amount),[3],˜5 min
same,t60% (time for dissolution of 60% of given amount),[4],2 to 3 min
same,pH of saturated sol.,[5]; Table 14,1.93
same,Ksp,[5]; calculated after correcting for common ion effect,4.1 × 10^−4 M^2
same,PHmax,[5],1.82
same,pH,[5]; 25° C.,1.93
same,S (aqueous solubility),"[5]; water, 25° C.",4815 µg/mL
same,Sw,"[5]; water, Table 14",4.815 mg/mL
